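Cells were grown in 96-well plates and exposed to each compound for 48 hours at five concentrations; endpoints were interpolated linearly between bracketing concentrations, or set to the highest concentration if not reached. Here, GI50 denotes the concentration required for 50% inhibition of growth.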 The source made the active and inactive calls. No stated cut-off is given here; in the data, active = GI50 up to about 1.1 µM and inactive = higher.
Tests used:
Assay in all cases: inhibition of tumour cell growth, NCI panel, 48 h
786-0 = system: 786-0
A498 = system: A498
A549 = system: A549
ACHN = system: ACHN
BT-549 = system: BT-549
CAKI-1 = system: CAKI-1
COLO 205 = system: COLO 205
DU-145 = system: DU-145
EKVX = system: EKVX
HCC 2998 = system: HCC 2998
HCT-116 = system: HCT-116
HCT-15 = system: HCT-15
HL-60 = system: HL-60
HOP-62 = system: HOP-62
HT-29 = system: HT-29
Hs-578T = system: Hs-578T
IGROV-1 = system: IGROV-1
K562 = system: K562
KM12 = system: KM12
LOX IMVI = system: LOX IMVI
M14 = system: M14
MCF7 = system: MCF7
MDA-MB-231 = system: MDA-MB-231
MDA-MB-435 = system: MDA-MB-435
MDA-N = system: MDA-N
MOLT-4 = system: MOLT-4
Malme-3M = system: Malme-3M
NCI-H226 = system: NCI-H226
NCI-H23 = system: NCI-H23
NCI-H460 = system: NCI-H460
NCI-H522 = system: NCI-H522
NCI/ADR-RES = system: NCI/ADR-RES
OVCAR-3 = system: OVCAR-3
OVCAR-4 = system: OVCAR-4
OVCAR-5 = system: OVCAR-5
OVCAR-8 = system: OVCAR-8
PC-3 = system: PC-3
RPMI-8226 = system: RPMI-8226
RXF 393 = system: RXF 393
SF-268 = system: SF-268
SF-295 = system: SF-295
SK-MEL-28 = system: SK-MEL-28
SK-MEL-5 = system: SK-MEL-5
SK-OV-3 = system: SK-OV-3
SNB-19 = system: SNB-19
SNB-75 = system: SNB-75
SR = system: SR
SW-620 = system: SW-620
TK-10 = system: TK-10
U-251 = system: U-251
UACC-257 = system: UACC-257
UACC-62 = system: UACC-62
UO-31 = system: UO-31

N/C(=N\c1cccc(Cl)c1)c1ccccc1N
GI50 (786-0): > 100 µM (inactive) | GI50 (A498): > 100 µM (inactive) | GI50 (A549): > 100 µM (inactive) | GI50 (ACHN): > 100 µM (inactive) | GI50 (BT-549): > 100 µM (inactive) | GI50 (CAKI-1): > 100 µM (inactive) | GI50 (COLO 205): > 100 µM (inactive) | GI50 (DU-145): > 100 µM (inactive) | GI50 (EKVX): > 100 µM (inactive) | GI50 (HCC 2998): > 100 µM (inactive) | GI50 (HCT-116): > 100 µM (inactive) | GI50 (HCT-15): > 100 µM | GI50 (HL-60): > 100 µM (inactive) | GI50 (HOP-62): > 100 µM (inactive) | GI50 (HT-29): > 100 µM (inactive) | GI50 (Hs-578T): > 100 µM (inactive) | GI50 (IGROV-1): > 100 µM (inactive) | GI50 (K562): > 100 µM (inactive) | GI50 (KM12): > 100 µM (inactive) | GI50 (LOX IMVI): > 100 µM (inactive) | GI50 (M14): > 100 µM (inactive) | GI50 (MCF7): > 100 µM (inactive) | GI50 (MDA-MB-231): > 100 µM (inactive) | GI50 (MDA-MB-435): > 100 µM (inactive) | GI50 (MDA-N): > 100 µM (inactive) | GI50 (MOLT-4): > 100 µM (inactive) | GI50 (Malme-3M): > 100 µM (inactive) | GI50 (NCI-H226): > 100 µM (inactive) | GI50 (NCI-H23): > 100 µM (inactive) | GI50 (NCI-H460): > 100 µM (inactive) | GI50 (NCI-H522): > 100 µM (inactive) | GI50 (NCI/ADR-RES): > 100 µM (inactive) | GI50 (OVCAR-3): > 100 µM (inactive) | GI50 (OVCAR-4): > 100 µM (inactive) | GI50 (OVCAR-5): > 100 µM (inactive) | GI50 (OVCAR-8): > 100 µM (inactive) | GI50 (PC-3): > 100 µM (inactive) | GI50 (RPMI-8226): > 100 µM (inactive) | GI50 (RXF 393): > 100 µM (inactive) | GI50 (SF-268): > 100 µM (inactive) | GI50 (SF-295): > 100 µM (inactive) | GI50 (SK-MEL-28): > 100 µM (inactive) | GI50 (SK-MEL-5): > 100 µM (inactive) | GI50 (SK-OV-3): > 100 µM (inactive) | GI50 (SNB-19): > 100 µM (inactive) | GI50 (SNB-75): > 100 µM (inactive) | GI50 (SR): > 100 µM (inactive) | GI50 (SW-620): > 100 µM (inactive) | GI50 (TK-10): > 100 µM (inactive) | GI50 (U-251): > 100 µM (inactive) | GI50 (UACC-257): > 100 µM (inactive) | GI50 (UACC-62): > 100 µM (inactive) | GI50 (UO-31): > 100 µM (inactive)

— ChEMBL document CHEMBL1201862, “PubChem BioAssay data set” (2004)
